According to patent US10517889B2, “Modulators of SMAD7 expression” (Ionis Pharmaceuticals, Inc., priority 2017, dated 2019):
Several values for one entry are separate records, joined by “and”; a condition that tells them apart may be missing. Equal entries are not always repeated. Strand notation (5' to 3'): a small letter for the sugar, then the base; units joined by * are phosphorothioate-linked, units joined directly phosphodiester-linked; [ ] holds rarer units or linkages, { } end groups; capitals alone tell only the bases. k = constrained ethyl (cEt); [5mC] = 5-methylcytosine; d = 2'-deoxy (DNA)

Tests used:
human SMAD7 mRNA [1] = experiment: Antisense inhibition of human SMAD7 mRNA expression in Hep3B cells by 3-10-3 cEt gapmers, 10,000 nM, electroporation (Example 2); type: cell-based; conditions: approximately 24 hours
Procedure, shortened: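 Percent inhibition of SMAD7 mRNA, relative to untreated cells, after ~24 h exposure of electroporated Hep3B cells to 10,000 nM cEt gapmer; levels by qRT-PCR, corrected for total RNA.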

human SMAD7 mRNA [2] = experiment: Dose-dependent inhibition of human SMAD7 mRNA expression in Hep3B cells (Example 3, Study 1 and 2); type: cell-based; conditions: electroporation; for % inhibition of SMAD7 mRNA expression: approximately 16 hours; for IC50: Study 2 (740-20000 nM)
Procedure: The antisense oligonucleotides were tested in a series of experiments that had similar culture conditions as described below.
(§1) Cells were plated at a density of 20,000 cells per well and transfected using electroporation with 0.31 μM, 1.25 μM, 5.00 μM, or 20.00 μM concentrations of antisense oligonucleotide, as specified in the Tables below. ION 483663 was included in the assays for comparison. After a treatment period of approximately 16 hours, RNA was isolated from the cells and SMAD7 mRNA levels were measured by quantitative real-time PCR. Primer probe set RTS5062 was used to measure human SMAD7 mRNA levels. SMAD7 mRNA levels were adjusted according to total RNA content, as measured by RIBOGREEN®. Results are presented as percent inhibition of SMAD7 mRNA expression, relative to untreated control cells.
The half maximal inhibitory concentration (IC50) of each oligonucleotide is also presented.
as §1, with “0.74” for “0.31”, “2.22” for “1.25”, “6.67” for “5.00”, “below.” for “below. ION 483663 was included in the assays for comparison.”

[3] = SMAD7 mRNA, Hep3B cells, 10,000 nM antisense oligonucleotide, electroporation, primer probe set RTS5062, relative to untreated control cells
[4] = 740 nM, Study 2, relative to untreated control cells
[5] = Hep3B cells, electroporation with 10,000 nM antisense oligonucleotide, primer probe set RTS5062, relative to untreated control cells
[6] = Hep3B cells, electroporation with 10,000 nM antisense oligonucleotide, SMAD7 mRNA by RT-PCR (RTS5062), relative to untreated control cells

Substance	% Inhibition (human SMAD7 mRNA [1]; [3]) [%]	% inhibition of SMAD7 mRNA expression (human SMAD7 mRNA [2]; [4]) [%]	% inhibition of SMAD7 mRNA expression (human SMAD7 mRNA [2]; 2220 nM, Study 2) [%]	% inhibition of SMAD7 mRNA expression (human SMAD7 mRNA [2]; 6670.0 nM, Study 2)	% inhibition of SMAD7 mRNA expression (human SMAD7 mRNA [2]; 20000.0 nM, Study 2)	IC50 (human SMAD7 mRNA [2]) [µM]	% inhibition of SMAD7 mRNA expression (human SMAD7 mRNA [1]; [5]) [%]	% Inhibition (human SMAD7 mRNA [1]; Hep3B cells, electroporation with 10,000 nM antisense oligonucleotide, RTS5062, percent inhibition of SMAD7 mRNA relative to untreated control cells) [%]	% Inhibition (human SMAD7 mRNA [1]; [6]) [%]	% Inhibition (human SMAD7 mRNA [1]; [5]) [%]	% inhibition of SMAD7 mRNA expression (human SMAD7 mRNA [1]; Hep3B cells, electroporation, 10,000 nM, 3-10-3 cEt gapmers targeting SEQ ID NO: 3 and 4) [%]	% Inhibition (human SMAD7 mRNA [1]; Hep3B cells, 10,000 nM antisense oligonucleotide, electroporation, RT-PCR primer probe set RTS5062, relative to untreated control cells) [%]
772553 (antisense kT*k[5mC]*kT*dT*dG*dA*dG*d[5mC]*dA*d[5mC]*d[5mC]*dG*dA*kG*kT*kG) [compound 772553]	59	36	45	71%	89%	2						
772560 (antisense kT*kT*kG*d[5mC]*dA*d[5mC]*dA*dG*d[5mC]*dA*dG*dG*dA*kG*kG*kG) [compound 772560]		0	32	57%	82%	5	66					
772578 (kG*kG*kT*dA*dT*d[5mC]*dT*dG*dG*dA*dG*dT*dA*kA*kG*kG; antisense) [compound 772578]	63	54	44	70%	86%	1						
772732 (kG*kA*kT*dA*dT*dT*dT*dA*dG*d[5mC]*dT*dG*dT*k[5mC]*kA*kG; antisense) [compound 772732]	58	27	60	63%	68%	3						
772842 (kG*kT*kT*dA*dA*dT*dA*dA*dT*dA*dT*d[5mC]*dT*kT*k[5mC]*k[5mC]; antisense) [compound 772842]		3	23	65%	72%	6		79				
772858 (kA*kG*kT*dG*dT*dT*d[5mC]*dA*dA*d[5mC]*dA*dA*dT*kG*k[5mC]*kT; antisense) [compound 772858]	62	7	26	29%	51%	> 20						
790476 (kT*kT*k[5mC]*dT*dT*dG*dA*dG*d[5mC]*dA*d[5mC]*d[5mC]*dG*kA*kG*kT; antisense) [compound 790476]		8	38	63%	69%	5			67			
790488 (kT*kT*k[5mC]*d[5mC]*dG*dA*dG*dG*dA*dA*dT*dG*d[5mC]*k[5mC]*kT*kG; antisense) [compound 790488]	81	12	34	46%	67%	7						
790614 (kG*kA*kG*dA*dA*dT*dG*d[5mC]*dT*dT*d[5mC]*dT*d[5mC]*kT*kT*kG; antisense) [compound 790614]		0	29	45%	54%	11				70		
790616 (k[5mC]*kT*kA*dA*dA*dT*dT*dT*d[5mC]*d[5mC]*dA*dA*dT*kG*kA*kG; antisense) [compound 790616]	66	0	8	26%	65%	13						
790636 (kA*kG*k[5mC]*dA*dT*d[5mC]*dT*dG*dG*dA*d[5mC]*dA*dG*kT*k[5mC]*kA; antisense) [compound 790636]		89	93	95%	99%	< 0.7					95	
790666 (kT*kA*kA*dT*dT*dT*dA*dT*dG*dA*d[5mC]*dA*dA*k[5mC]*kG*k[5mC]; antisense) [compound 790666]	72	13	49	54%	74%	4						
790732 (kG*k[5mC]*kT*dT*dA*dT*dT*dT*d[5mC]*dA*dT*dG*dT*kG*kG*kT; antisense) [compound 790732]	69	70	78	88%	93%	2						
790736 (kT*k[5mC]*kA*dA*dA*d[5mC]*dT*dT*dT*dG*dA*dA*dG*k[5mC]*k[5mC]*kT; antisense) [compound 790736]	60	32	56	68%	74%	> 20						
798662 (kG*k[5mC]*kT*d[5mC]*d[5mC]*dG*dG*d[5mC]*dT*dG*d[5mC]*d[5mC]*d[5mC]*k[5mC]*kA*k[5mC]; antisense) [compound 798662]		0	28	22%	25%	> 20	62					
798686 (antisense kG*kA*kG*dG*dA*dG*dG*d[5mC]*dG*dA*dG*dG*dA*kG*kA*kA) [compound 798686]		0	0	2%	33%	5	59					
798687 (antisense kG*kG*k[5mC]*dG*dA*dG*dG*dA*dG*dG*d[5mC]*dG*dA*kG*kG*kA) [compound 798687]		27	42	60%	61%	7	64					
798696 (antisense kT*k[5mC]*k[5mC]*d[5mC]*d[5mC]*d[5mC]*dT*dG*d[5mC]*dG*d[5mC]*d[5mC]*d[5mC]*kT*k[5mC]*k[5mC]) [compound 798696]		0	33	58%	66%	< 0.7			82			
798733 (antisense k[5mC]*kG*k[5mC]*dG*dG*d[5mC]*dT*dG*dG*d[5mC]*dG*dG*dG*kT*kG*kG) [compound 798733]		58	84	88%	95%	4			72			
798764 (kA*k[5mC]*kT*dT*dT*dG*d[5mC]*dA*d[5mC]*dA*dG*d[5mC]*dA*kG*kG*kA; antisense) [compound 798764]	75			57% and 72% and 54%	93% and 87% and 65% and 83%	1	69					
798823 (kA*k[5mC]*kA*dG*dT*dA*dG*dA*dG*d[5mC]*d[5mC]*dT*d[5mC]*k[5mC]*k[5mC]*k[5mC]; antisense) [compound 798823]		27	27	63%	70%	> 20						74
